pKi: −log10 of the molar value.
What follows are compounds tested against T1, Thymidylate kinase (Mycobacterium tuberculosis, UniProt P9WKE1) (assay: Binding affinity towards mycobacterium tuberculosis thymidine monophosphate kinase).
T1 sequence (P9WKE1 whole entry): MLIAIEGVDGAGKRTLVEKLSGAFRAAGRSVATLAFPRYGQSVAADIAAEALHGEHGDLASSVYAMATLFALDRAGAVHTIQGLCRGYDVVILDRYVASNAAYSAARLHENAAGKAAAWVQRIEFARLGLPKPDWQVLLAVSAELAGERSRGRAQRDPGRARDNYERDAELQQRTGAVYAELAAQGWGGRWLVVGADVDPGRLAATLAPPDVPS
Work on `O=C(O)CCCc1ccc(Cn2cc(Br)c(=O)[nH]c2=O)cc1` yielded a pKi of 4.91.

Each compound was assayed against T1, Thymidylate kinase (assay: Binding affinity towards mycobacterium tuberculosis thymidine monophosphate kinase; NI=No inhibition).
`Cc1cn(Cc2ccc(CCC#N)cc2)c(=O)[nH]c1=O` was tested, and the Ki was “Not Active”.
`O=c1[nH]c(=O)n(Cc2ccccc2)cc1F` was tested, and the Ki was “Not Active”.
With `Cc1cn(Cc2ccc(/C=C/C(=O)O)cc2)c(=O)[nH]c1=O` the Ki was “Not Active”.
`Cc1cn(Cc2ccc(/C=C/C#N)cc2)c(=O)[nH]c1=O` was tested, and the Ki was “Not Active”.
For `CCOC(=O)/C=C/c1ccc(Cn2cc(C)c(=O)[nH]c2=O)cc1`, the Ki was “Not Active”.

From ChEMBL document CHEMBL1144358, “LEA3D: a computer-aided ligand design for structure-based drug design” (J Med Chem, 2005)
